In ChEMBL document CHEMBL5050861 (2021):
Converted amounts (≈) assume the structure as drawn.

How the values were obtained:
[1] = Inhibition of human GALK1 K252A/E253A double mutant; conditions: read-out: IC50
[2] = Permeability of compound by PAMPA assay; assay type: ADME; conditions: for Papp: read-out: permeability
[3] = Inhibition of recombinant mouse GALK1 using ATP as substrate incubated for 1 hr and measured by Kinase-Glo assay
[4] = species: Homo sapiens; assay: Inhibition of human GALK1 K252A/E253A double mutant relative to control; parameters: concentration or dose not given beside the values; conditions: concentration not given here
[5] = Kinetic aqueous solubility of the compound; assay type: physicochemical; conditions: buffer; read-out: Kinetic_solubility
[6] = Stability of compound in rat microsomes assessed as half-life; assay type: ADME, Microsome

| SMILES | IC50 [1] [µM] | Papp [2] [×10⁻⁶ cm/s] | IC50 ([3]; read-out: IC50) [µM] | inhibition [4] [%] | solubility kinetic [5] [µg/mL] | half-life [6] [min] | IC50 [3] | permeability [2] |
| --- | --- | --- | --- | --- | --- | --- | --- | --- |
| CC1=C(C(=O)Nc2cccc(C(=O)O)c2)C(c2ccccc2Cl)N=C(Nc2nc3ccccc3o2)N1 (stereo not drawn) | 3.1 | < 1 | 6.11 | 96 | 59.1 (≈ 118 µM) | > 30 |  |  |
| COc1cccc2nc(NC3=NC(c4ccccc4Cl)C(C(=O)Nc4cc(C(=O)O)ccn4)=C(C)N3)oc12 (stereo not drawn) | > 15 | < 1 |  | 80 | 65.7 (≈ 123 µM) | > 30 | Not Active |  |
| CC1=C(C(=O)Nc2cc(C(=O)O)ccn2)C(c2ccc(Cl)cc2Cl)N=C(Nc2nc3ccc(F)cc3o2)N1 (stereo not drawn) | 0.345 | < 1 | 3.85 | 85 | < 1 | > 30 |  |  |
| CC1=C(C(=O)Nc2cc(C(=O)O)ccn2)C(c2ccc(F)cc2Cl)N=C(Nc2nc3ccc(F)cc3o2)N1 (stereo not drawn) | 0.258 | < 1 | 4.32 | 100 | 40.6 (≈ 75.3 µM) | > 30 |  |  |
| COc1ccc2oc(NC3=NC(c4ccccc4Cl)C(C(=O)Nc4cc(C(=O)O)ccn4)=C(C)N3)nc2c1 (stereo not drawn) | 2 | < 1 | 12.2 | 100 | > 79 | > 30 |  |  |
| CC1=C(C(=O)Nc2cc(C(=O)O)ccn2)C(c2ccccc2Cl)N=C(Nc2nc3cccc(F)c3o2)N1 (stereo not drawn) | 1 | < 1 | 8.63 | 100 | > 77 | > 30 |  |  |
| CC1=C(C(=O)Nc2cc(C(=O)O)ccn2)C(c2cccc(S(N)(=O)=O)c2)N=C(Nc2nc3ccc(F)cc3o2)N1 (stereo not drawn) | > 15 | < 10 | 38.5 | 75 | > 84 | > 30 |  |  |
| CC1=C(C(=O)Nc2cc(C(=O)O)ccn2)C(c2ccccc2Cl)N=C(Nc2nc3ccc(C)cc3o2)N1 (stereo not drawn) | 6.9 | < 1 | 17.2 | 100 | 34.4 (≈ 66.6 µM) | > 30 |  |  |
| COc1cccc(C2N=C(Nc3nc4ccc(F)cc4o3)NC(C)=C2C(=O)Nc2cc(C(=O)O)ccn2)c1Cl (stereo not drawn) | 5.4 | < 1 | 19.3 | 100 | > 81 | > 30 |  |  |
| CC1=C(C(=O)Nc2cc(C(=O)O)ccn2)C(c2ccccc2Cl)N=C(Nc2nc3cc(N)ccc3o2)N1 (stereo not drawn) | 5.5 | 10 | 21.7 | 100 | > 76 | > 30 |  |  |
| COc1ccc([C@@H]2N=C(Nc3nc4cccc(N)c4o3)NC(C)=C2C(=O)Nc2cc(C(=O)O)ccn2)c(Cl)c1 |  | < 1 | 2.43 |  | > 81 | > 30 |  |  |
| O=C1CC(C(=O)NCCO)CC2=C1C(c1ccccc1Cl)N=C(Nc1nc3ccccc3o1)N2 (stereo not drawn) |  | < 2 | 5.44 |  | 29 (≈ 60.4 µM) | > 30 |  |  |
| CC1=C(C(=O)Nc2cc(C(=O)O)ccn2)C(c2ccc(-c3cnc(C)nc3)cc2Cl)N=C(Nc2nc3ccc(F)cc3o2)N1 (stereo not drawn) |  | < 1 | 0.69 |  | > 90 | > 30 |  |  |
| COc1ccc2nc(NC3=NC(c4ccccc4Cl)C(C(=O)Nc4cc(C(=O)O)ccn4)=C(C)N3)oc2c1 (stereo not drawn) |  | < 1 | 21.7 |  | > 79 | > 30 |  |  |
| CC1=C(C(=O)NCc2cnn(C)c2)C(c2ccc(C)cc2Cl)N=C(Nc2nc3cccc(N)c3o2)N1 (stereo not drawn) | 0.047 |  | 2.17 |  | 4.47 (≈ 8.85 µM) | 14.1 |  | 25.28 10^-6 cm/s |
| CC1=C(C(=O)Nc2nnc(-c3cccnc3)s2)C(c2ccccc2Cl)N=C(Nc2nc3cc(Cl)ccc3o2)N1 (stereo not drawn) |  | < 3.4 | 19.3 |  | < 1 | > 30 |  |  |
| CC1=C(C(=O)Nc2cc(C(=O)O)ccn2)[C@H](c2ccccc2Cl)N=C(Nc2nc3ccc(F)cc3o2)N1 |  | < 1 | 1.72 |  | 55.6 (≈ 107 µM) | > 30 |  |  |
| CC1=C(C(=O)Nc2cc(C(=O)O)ccn2)C(c2ccc(C)cc2Cl)N=C(Nc2nc3ccc(F)cc3o2)N1 (racemic) | 0.136 |  | 3.06 | 100 | 2.8 (≈ 5.23 µM) | > 30 |  |  |
| CC1=C(C(=O)Nc2cc(C(=O)O)ccn2)C(c2ccc(C)cc2Cl)N=C(Nc2nc3cccnc3o2)N1 (stereo not drawn) |  | < 1 |  |  | > 51 | > 30 | Not Active |  |
| CC1=C(C(=O)Nc2cc(C(=O)O)ccn2)C(c2ccc(-n3cccn3)cc2Cl)N=C(Nc2nc3ccc(F)cc3o2)N1 (stereo not drawn) |  | < 1 | 3.43 |  | > 87 | > 30 |  |  |
| COP(=O)(OC)C1=C(C)NC(Nc2nc3ccccc3o2)=NC1c1ccccc1Cl (stereo not drawn) |  |  | 13.7 |  | 12.2 (≈ 27.3 µM) | 5.35 |  | 1813.86 10^-6 cm/s |
| CC1=C(C(=O)Nc2cc(C(=O)O)ccn2)[C@@H](c2ccccc2Cl)N=C(Nc2nc3ccc(F)cc3o2)N1 |  | < 1 | 13.7 |  | 17.3 (≈ 33.2 µM) | > 30 |  |  |
| O=C(O)CNC(=O)C1CC(=O)C2=C(C1)NC(Nc1nc3ccccc3o1)=NC2c1ccccc1Cl (stereo not drawn) |  | < 1 | 4.85 |  | 58.2 (≈ 118 µM) | > 30 |  |  |
| CC1=C(C(=O)Nc2cc(C(=O)O)ccn2)[C@H](c2ccc(C)cc2Cl)N=C(Nc2nc3ccc(F)cc3o2)N1 |  | < 1 | 1.37 |  | > 79 | > 30 |  |  |
| CC1=C(C(=O)NCc2cnn(C)c2)C(c2ccc(C)cc2Cl)N=C(Nc2nc3ccc(F)c(C(=O)O)c3o2)N1 (stereo not drawn) |  | < 1 | 21.7 |  | 26.3 (≈ 47.6 µM) | > 30 |  |  |
| CC1=C(C(=O)Nc2cc(C(=O)O)ccn2)C(c2ccc(-n3ccnc3)cc2Cl)N=C(Nc2nc3ccc(F)cc3o2)N1 (stereo not drawn) |  | < 1 | 0.97 |  | > 87 | > 30 |  |  |
| CC1=C(C(=O)Nc2cccc(-c3cn[nH]c3)c2)C(c2ccccc2Cl)N=C(Nc2nc3ccccc3o2)N1 (stereo not drawn) |  | < 25.4 | 38.5 |  | < 1 | > 30 |  |  |
| CC1=C(C(=O)Nc2cc(B(O)O)ccn2)C(c2ccc(C)cc2Cl)N=C(Nc2nc3ccc(F)cc3o2)N1 (stereo not drawn) |  | < 3.2 | 10.9 |  | < 1 | 14.1 |  |  |
| CCOC(=O)N1C(Nc2nc3ccccc3o2)=NC(c2ccccc2Cl)C(C(=O)Nc2cc(C(=O)O)ccn2)=C1C (stereo not drawn) |  | < 1 | 19.3 |  | > 85 | > 30 |  |  |

Further lines, results first:

| IC50 [1] [µM] | Papp [2] [×10⁻⁶ cm/s] | IC50 ([3]; read-out: IC50) [µM] | inhibition [4] [%] | solubility kinetic [5] [µg/mL] | half-life [6] [min] | IC50 [3] | permeability [2] | SMILES |
| --- | --- | --- | --- | --- | --- | --- | --- | --- |
| 1.4 |  | 6.11 | 100 | < 1 | > 30 |  |  | CC1=C(C(=O)Nc2ccc(C(=O)O)cc2)C(c2ccccc2Cl)N=C(Nc2nc3ccccc3o2)N1 (stereo not drawn) |
| 1.4 |  | 6.85 | 98 | 42 (≈ 88.2 µM) | 8.87 |  |  | CC1=C(C(=O)NCc2cncn2C)C(c2ccccc2Cl)N=C(Nc2nc3ccccc3o2)N1 (stereo not drawn) |
| 3.4 |  | 7.69 | 96 | < 1 | > 30 |  |  | CC1=C(C(=O)Nc2nncs2)C(c2ccccc2Cl)N=C(Nc2nc3ccccc3o2)N1 (stereo not drawn) |
| 0.97 | < 10 | 13.7 | 57 | < 1 | 24 |  |  | CC1=C(C(=O)Nc2ccccc2)C(c2ccccc2Cl)N=C(Nc2nc3ccccc3o2)N1 (stereo not drawn) |
| 0.97 |  | 6.85 | 88 | > 74 | > 30 |  |  | CC1=C(C(=O)Nc2cc(C(=O)O)ccn2)C(c2ccccc2Cl)N=C(Nc2nc3ccccc3o2)N1 (racemic) |
| 0.77 |  | 7.69 | 90 | 26.6 (≈ 55.9 µM) | 14.6 |  |  | CC1=C(C(=O)NCc2cn(C)cn2)C(c2ccccc2Cl)N=C(Nc2nc3ccccc3o2)N1 (racemic) |
| 1.7 | < 1 |  | 99 | > 75 | > 30 |  |  | CC1=C(C(=O)Nc2ncc(C(=O)O)s2)C(c2ccccc2Cl)N=C(Nc2nc3ccccc3o2)N1 (stereo not drawn) |
| 1.2 |  | 12.2 | 84 | < 1 | 6.43 |  |  | CC1=C(C(=O)NCc2cncs2)C(c2ccccc2Cl)N=C(Nc2nc3ccccc3o2)N1 (stereo not drawn) |
| 3.9 |  | 10.7 | 95 | < 1 | > 30 |  |  | CC1=C(C(=O)Nc2nnc(C)s2)C(c2ccccc2Cl)N=C(Nc2nc3ccccc3o2)N1 (stereo not drawn) |
|  | < 2.7 | 10.7 |  | < 1 | 3.16 |  |  | CCOC(=O)c1nnc(NC(=O)C2=C(C)NC(Nc3nc4ccccc4o3)=NC2c2ccccc2Cl)s1 (stereo not drawn) |
|  |  | 19.3 |  | < 1 | 1.58 |  | 1248.8 10^-6 cm/s | CC1=C(C(=O)NCc2cccnc2)C(c2ccccc2Cl)N=C(Nc2nc3ccccc3o2)N1 (stereo not drawn) |
|  | < 18.7 | 13.7 |  | < 1 | 25.3 |  |  | CC1=C(C(=O)Nc2ccc(C#N)cc2)C(c2ccccc2Cl)N=C(Nc2nc3ccccc3o2)N1 (stereo not drawn) |
|  | < 1 | 3.06 |  | > 74 | > 30 |  |  | CC1=C(C(=O)Nc2ccnc(C(=O)O)c2)C(c2ccccc2Cl)N=C(Nc2nc3ccccc3o2)N1 (stereo not drawn) |
|  | < 1.3 | 19.3 |  | 60.6 (≈ 117 µM) | > 30 |  |  | CC1=C(C(=O)NCc2cccc(C(=O)O)c2)C(c2ccccc2Cl)N=C(Nc2nc3ccccc3o2)N1 (stereo not drawn) |
|  | < 7.3 | 3.43 |  | < 1 | > 30 |  |  | CC1=C(C(=O)Nc2ccc([N+](=O)[O-])cc2)C(c2ccccc2Cl)N=C(Nc2nc3ccccc3o2)N1 (stereo not drawn) |
